Literature values in US12558353B2 (CELLTAXIS, LLC, priority 2018, dated 2026).
Read-outs that look alike come from different tables or passages of the source.

What was measured:
[1] = tested on: P. aeruginosa-infected mice; conditions: doses of 0.3 to 100 mg/kg; cited from earlier work
BLT1 receptor = molecular target: T1, BLT1 receptor (Homo sapiens, UniProt Q15722); conditions: patients with stable CF lung disease, cited from earlier work
T1 construct: host or cells: human CF patients (endogenous receptor)
T1 sequence (Q15722 whole entry): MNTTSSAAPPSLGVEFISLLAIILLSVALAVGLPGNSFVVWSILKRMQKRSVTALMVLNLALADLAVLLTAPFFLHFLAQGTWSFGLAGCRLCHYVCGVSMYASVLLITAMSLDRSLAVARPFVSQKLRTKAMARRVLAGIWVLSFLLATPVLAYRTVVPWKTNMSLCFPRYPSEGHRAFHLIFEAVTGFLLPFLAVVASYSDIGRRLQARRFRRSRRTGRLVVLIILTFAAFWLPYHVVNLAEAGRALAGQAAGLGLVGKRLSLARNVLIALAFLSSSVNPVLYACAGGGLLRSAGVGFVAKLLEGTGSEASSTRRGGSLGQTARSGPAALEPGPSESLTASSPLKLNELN

patients with CF = conditions: high doses, cited from earlier work

Row | SMILES | Mac-1 (CR3) expression [1] | number of neutrophils in the lungs and the airways [1] | serious adverse events leading to early termination of the trial (BLT1 receptor) | serious adverse events leading to early termination of the trial (BLT1 receptor; listed as amelubant) | survival (patients with CF; children with CF) | lung function decline (patients with CF)
1 | CCOC(=O)NC(=N)c1ccc(OCc2cccc(COc3ccc(C(C)(C)c4ccc(O)cc4)cc3)c2)cc1 | significantly down-regulated | reduced the number of neutrophils | increase in respiratory serious adverse events | increase in serious pulmonary AEs | – | –
2 | CC(C)Cc1ccc(C(C)C(=O)O)cc1 (stereo not drawn) [ibuprofen] | – | – | – | – | improves survival | slows lung function decline
